Measured values: PubChem BioAssay (NCI)
Where “and” joins values, the source holds several entries; their conditions need not be identical. Identical values can stand only once.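 These data come from cells grown in 96-well plates and exposed to compound for 48 hours at five concentrations. At the GI50, growth is halved. TGI: concentration producing complete growth inhibition.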

Legend:
Test in all cases: growth of human tumour cells (NCI), 48 h
[1] = tested on: M14 melanoma
[2] = tested on: NCI-H522 lung
[3] = tested on: CCRF-CEM leukemia
[4] = tested on: HOP-92 NSCLC
[5] = tested on: HS 578T breast
[6] = tested on: MDA-MB-435
[7] = tested on: OVCAR-8 ovarian
[8] = tested on: SNB-75 CNS
[9] = tested on: SNB-19 CNS
[10] = tested on: SN12C renal
[11] = tested on: UACC-257 melanoma
[12] = tested on: HL-60(TB) leukemia

SMILES | TGI [1] [µM] | TGI [2] [µM] | TGI [3] [µM] | TGI [4] [µM] | TGI [5] [µM] | TGI [6] [µM] | TGI [7] [µM] | TGI [8] [µM] | TGI [9] [µM] | TGI [10] [µM] | TGI [11] [µM] | TGI [12] | GI50 [2] | GI50 [12] [µM] | GI50 [3] [µM] | GI50 [4] [µM] | GI50 [7] [µM] | GI50 [8] [µM] | GI50 [9] [µM] | GI50 [10] [µM]
CCn1c(=O)c2c3cc(O)ccc3oc2c2ccc(O)cc21 | > 100 | 63.9 | > 100 | 80.3 | > 100 | > 100 | > 100 | > 100 | > 100 | > 100 | > 100 |  |  |  |  |  |  |  |  | 
O=C1/C(=C/c2ccc(Br)s2)NC(=S)N1CN1CCOCC1 |  | > 100 |  |  | > 100 | > 100 | > 100 | > 100 | > 100 | > 100 | > 100 | 62.6 µM |  |  |  |  |  |  |  | 
COc1ccc(CNc2nc3ccc(C(F)(F)F)cc3nc2-c2ccccc2)cc1OC |  |  | > 100 | 15.5 |  |  | > 100 | > 100 | > 100 | > 100 | > 100 | > 100 µM |  |  |  |  |  |  |  | 
C(=Nc1ccc(-c2nc3ccccc3s2)cc1)c1ccco1 | > 100 | > 100 | > 100 | > 100 | > 100 | > 100 | > 100 | > 100 | > 100 | > 100 | > 100 |  |  |  |  |  |  |  |  | 
O=C1NC(=S)NC(=O)C1C(c1ccccc1[N+](=O)[O-])C1C(=O)NC(=S)NC1=O | > 100 | > 100 | > 100 | > 100 | > 100 | > 100 | > 100 |  | > 100 | > 100 | > 100 | > 100 µM |  |  |  |  |  |  |  | 
Cc1ccc(C(=O)Nc2ccc(CP(=O)(O)O)cc2)cc1NC(=O)c1cccc(NC(=O)Nc2cccc(C(=O)Nc3cc(C(=O)Nc4ccc(CP(=O)(O)O)cc4)ccc3C)c2)c1 | > 100 | > 100 | > 100 |  | > 100 | > 100 | > 100 | > 100 | > 100 | > 100 | > 100 | > 100 µM |  |  |  |  |  |  |  | 
CC(C)/C(Cl)=N\OC(=O)NNc1ccccc1 | > 56.3 | 28.7 | > 46.7 | 35.3 | > 100 | > 100 | > 100 | > 100 | > 100 | > 74.7 | > 100 |  |  |  |  |  |  |  |  | 
CN(C)c1ccc(/C(Br)=C2\OC(=O)c3ccccc32)cc1 | > 100 |  | > 100 |  | > 100 | > 100 | > 100 | > 100 | > 100 | > 100 | > 100 | > 100 µM |  |  |  |  |  |  |  | 
COc1cc([C@@H]2c3cc4c(cc3C[C@H]3COC(=O)[C@@H]32)OCO4)cc(OC)c1OC |  | 0.00689 | 21.1 |  | 0.00715 |  | 0.324 | > 13.3 | > 7.93 | > 10.8 | > 5 | 0.00526 µM and 0.0126 µM | 0.003 µM and 0.00924 µM | 0.00202 | 0.00386 | 0.00752 | 0.00407 | 0.0042 | 0.00666 | 0.0067
N#Cc1c2c(c(Nc3ccc(F)cc3)n3c1nc1ccccc13)CCC2 | 18.4 | 4.58 | 4.52 | 20.5 |  | 11 | 5.83 | 16.7 | 22.1 | 4.59 | 24.1 | > 100 µM |  |  |  |  |  |  |  | 
c1ccc(N=c2snc(-c3ccccc3)s2)cc1 | > 100 | > 100 | > 100 |  |  |  | > 100 | > 100 | > 100 | > 100 | > 100 | > 100 µM |  |  |  |  |  |  |  | 
O=c1nc2c(c(-c3cccc(Cl)c3)[nH]1)COC/C2=C\c1cccc(Cl)c1 | > 100 | > 100 | > 100 | > 100 | > 100 | > 100 | > 100 | > 100 | > 100 | > 100 | > 100 |  |  |  |  |  |  |  |  | 
Cc1cc2cccc(Cl)c2nc1C(=O)c1ccccc1 | > 100 | > 100 |  |  |  |  | > 100 | 56.8 | > 100 | > 100 | 66.9 |  |  |  |  |  |  |  |  | 
CCN(CCCN(CC)C(=O)N[C@@H](Cc1ccccc1)C(=O)NC)C(=O)N[C@@H](Cc1ccccc1)C(=O)NC | > 100 | > 100 |  | > 100 | > 100 | > 100 | > 100 |  | > 100 |  | > 100 |  |  |  |  |  |  |  |  | 
CC(=O)/C(=C/n1c(=S)sc2ccccc21)C(=O)Nc1ccccc1C | > 100 |  |  | > 100 |  | > 100 | > 100 | > 100 | > 100 | > 100 | > 100 | > 100 µM |  |  |  |  |  |  |  | 
CSc1c(C(=O)Nc2ccc(C)cc2)c(N)[nH]c(=O)c1C#N | > 100 | > 100 | > 100 |  | > 100 | > 100 | > 100 | > 100 | > 100 | > 100 | > 100 | > 100 µM |  |  |  |  |  |  |  | 
CN1C(=O)CN(NC(=O)C2=C(O)c3ccc(Br)cc3S(=O)(=O)N2)C1=S | > 100 | > 100 | 51.1 | > 100 | > 100 | > 100 | > 100 |  | > 100 | > 100 | > 100 | > 100 µM |  |  |  |  |  |  |  | 
CC(=O)CC(=O)c1cc2c(=O)oc(C)cc2oc1=O | > 37.5 | > 37.5 | > 37.5 |  |  |  | > 37.5 | > 37.5 | > 37.5 | > 37.5 | > 37.5 | > 37.5 µM |  |  |  |  |  |  |  | 
CC1CC(C#N)=C2NCCCCN2C1=O (centres undefined) | > 100 | > 100 | > 100 |  | > 100 | > 100 | > 100 | > 100 | > 100 | > 100 | > 100 | > 100 µM |  |  |  |  |  |  |  | 
CCOC(=O)C1CC(O)C(=O)N1C (centres undefined) | > 100 |  | > 100 | > 100 |  | > 100 |  |  | > 100 | > 100 | > 100 | > 100 µM |  |  |  |  |  |  |  | 
